These results are taken from patent US8883782B2, “Spiro-tetracyclic ring compounds as beta-secretase modulators and methods of use” (Amgen Inc., priority 2010, dated 2014).

Assay [1] concerns Aβ40 in conditioned medium of cells stably expressing Amyloid Precursor Protein (APP). The assay can be described thus: In vitro BACE cell-based assay (Aβ40 in conditioned medium, sandwich ELISA). The following applies: read-out: HEK cell assay. The method, boiled down: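 Quantification relied on pAb40/6E10 sandwich ELISA with Europium fluorescence counts, and IC50 was fitted versus concentration.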
In general terms: An ELISA detects its analyte on a solid surface through an enzyme-linked reagent.

Assay [2] addresses Beta Secretase enzyme (BACE) (Homo sapiens, UniProt P56817). Briefly: In vitro enzymatic BACE FRET (fluorescence resonance energy transfer) assay. In kind it is biochemical. The note with it: average IC50, enzyme assay; read-out: BACE 1 FRET assay. The procedure, abridged:
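Buffer 0.05 M acetate pH 4.2, 10% DMSO final, 100 uM genapol (sub-CMC); start with 50 nM FRET substrate; 1 h incubation; Tris stop; fluorescence read.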

The mark [3] stands for this setting: Homo sapiens, HEK293, average IC50, HEK cells.

Each structure is given as a SMILES string. Read-outs that look alike come from different tables or passages of the source.

Beta Secretase enzyme (BACE), sequence (P56817 46-501, species assumed): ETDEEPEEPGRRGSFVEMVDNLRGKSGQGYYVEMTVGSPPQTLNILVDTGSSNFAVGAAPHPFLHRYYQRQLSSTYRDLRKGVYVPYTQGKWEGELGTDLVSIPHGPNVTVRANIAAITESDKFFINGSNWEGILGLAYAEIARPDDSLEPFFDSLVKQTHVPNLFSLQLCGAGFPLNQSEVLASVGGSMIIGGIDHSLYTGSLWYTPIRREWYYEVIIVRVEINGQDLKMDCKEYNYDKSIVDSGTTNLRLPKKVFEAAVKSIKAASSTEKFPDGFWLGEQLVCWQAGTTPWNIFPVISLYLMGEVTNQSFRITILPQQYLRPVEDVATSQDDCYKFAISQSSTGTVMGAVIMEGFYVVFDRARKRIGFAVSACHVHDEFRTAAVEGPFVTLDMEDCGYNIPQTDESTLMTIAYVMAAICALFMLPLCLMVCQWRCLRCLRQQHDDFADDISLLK

As to `CC(C)(C)COc1cc2c(cn1)Oc1ccc(-c3cccnc3F)cc1[C@]21COC(N)=N1` [Example 610, (5R)-3-(2,2-dimethylpropoxy)-7-(2-fluoro-3-pyridinyl)spiro[chromeno[2,3-c]pyridine-5,4′-[1,3]oxazol]-2′-amine], the IC50 in assay [1] (setting [3]) came out at 1130 nM; in assay [2], 116 nM.
On the same counts, the results for `NC1=NC2(CS1)c1cc(-c3cccnc3F)ccc1Oc1c2cc(Cl)nc1F` (stereo not shown) [Example 611, 3-chloro-1-fluoro-7-(2-fluoro-3-pyridinyl)spiro[chromeno[2,3-c]pyridine-5,4′-[1,3]thiazol]-2′-amine] are 2950 nM and 6.1 nM.
For the compound `COc1ccnc(F)c1-c1ccc2c(c1)[C@@]1(COC(N)=N1)c1cc(C3=CCOCC3)ncc1O2` [Example 612, (5S)-3-(3,6-dihydro-2H-pyran-4-yl)-7-(2-fluoro-4-methoxy-3-pyridinyl)spiro[chromeno[2,3-c]pyridine-5,4′-[1,3]oxazol]-2′-amine], the values for the IC50 in assay [1] (setting [3]) and in assay [2] were 3 nM and 0.6 nM, respectively.
Turning to `NC1=N[C@]2(CS1)c1cc(-c3cccnc3F)ccc1Oc1cnc(C3=CCOCC3)cc12` [Example 613, (5R)-3-(3,6-dihydro-2H-pyran-4-yl)-7-(2-fluoro-3-pyridinyl)spiro[chromeno[2,3-c]pyridine-5,4′-[1,3]thiazol]-2′-amine], the figures for the IC50 in assay [1] (setting [3]) and in assay [2] were 2560 nM and 227 nM, respectively.
Consider `NC1=N[C@@]2(CS1)c1cc(-c3cccnc3F)ccc1Oc1cnc(C3=CCOCC3)cc12` [Example 614, (5S)-3-(3,6-dihydro-2H-pyran-4-yl)-7-(2-fluoro-3-pyridinyl)spiro[chromeno[2,3-c]pyridine-5,4′-[1,3]thiazol]-2′-amine], for which the IC50 in assay [1] (average IC50, HEK cells) was determined as 5 nM; in assay [2] it was 0.3 nM.
As for `NC1=N[C@@]2(CO1)c1cc(-c3cncc(F)c3)ccc1Oc1c2cc(C2=CCOCC2)nc1F` [Example 615, (5S)-3-(3,6-dihydro-2H-pyran-4-yl)-1-fluoro-7-(5-fluoro-3-pyridinyl)spiro[chromeno[2,3-c]pyridine-5,4′-[1,3]oxazol]-2′-amine], the IC50 in assay [1] (setting [3]) was 2 nM; in assay [2], 0.3 nM.
`NC1=N[C@@]2(CO1)c1cc(-c3c(F)ccnc3F)ccc1Oc1cnc(C3CCOCC3)cc12` [Example 616, (5S)-7-(2,4-difluoro-3-pyridinyl)-3-(tetrahydro-2H-pyran-4-yl)spiro[chromeno[2,3-c]pyridine-5,4′-[1,3]oxazol]-2′-amine]: the IC50 in assay [1] (setting [3]) turned out to be 176 nM; in assay [2], 17 nM.
As to `NC1=N[C@@]2(CO1)c1cc(-c3c(F)ccnc3F)ccc1Oc1cnc([C@H]3CCCCO3)cc12` [Example 617, (5S)-7-(2,4-difluoro-3-pyridinyl)-3-((2R)-tetrahydro-2H-pyran-2-yl)spiro[chromeno[2,3-c]pyridine-5,4′-[1,3]oxazol]-2′-amine], the IC50 in assay [1] (average IC50, HEK cells) was determined as 42 nM; in assay [2], 5.2 nM.
For `NC1=N[C@]2(CS1)c1cc(-c3cncc(F)c3)ccc1Oc1cnc(C3=CCOCC3)cc12` [Example 618, (5R)-3-(3,6-dihydro-2H-pyran-4-yl)-7-(5-fluoro-3-pyridinyl)spiro[chromeno[2,3-c]pyridine-5,4′-[1,3]thiazol]-2′-amine], the results for the IC50 in assay [1] (setting [3]) and in assay [2] were 6670 nM and 369 nM, respectively.
On to `NC1=N[C@@]2(CS1)c1cc(-c3cncc(F)c3)ccc1Oc1cnc(C3=CCOCC3)cc12` [Example 619, (5S)-3-(3,6-dihydro-2H-pyran-4-yl)-7-(5-fluoro-3-pyridinyl)spiro[chromeno[2,3-c]pyridine-5,4′-[1,3]thiazol]-2′-amine], for which the IC50 in assay [1] (average IC50, HEK cells) is 8 nM; in assay [2] it was 0.4 nM.
With `Cc1ccn(-c2cc(F)c3c(c2)[C@]2(COC(N)=N2)c2cc(-c4cccnc4F)ccc2O3)n1` [Example 620, (4S)-4′-fluoro-7′-(2-fluoro-3-pyridinyl)-2′-(3-methyl-1H-pyrazol-1-yl)spiro[1,3-oxazole-4,9′-xanthen]-2-amine], the IC50 in assay [1] (setting [3]) stood at 68 nM; in assay [2], 2.8 nM.
On the same counts, the results for `CC1(C#Cc2cnc3c(c2)[C@]2(COC(N)=N2)c2cc(-c4cnccc4F)c(F)cc2O3)COC1` [Example 621, (5S)-8-fluoro-7-(4-fluoro-3-pyridinyl)-3-((3-methyl-3-oxetanyl)ethynyl)spiro[chromeno[2,3-b]pyridine-5,4′-[1,3]oxazol]-2′-amine] are 5 nM and 0.6 nM.
On to `CC1(C#Cc2cnc3c(c2)[C@@]2(COC(N)=N2)c2cc(-c4cnccc4F)c(F)cc2O3)COC1` [Example 622, (5R)-8-fluoro-7-(4-fluoro-3-pyridinyl)-3-((3-methyl-3-oxetanyl)ethynyl)spiro[chromeno[2,3-b]pyridine-5,4′-[1,3]oxazol]-2′-amine], for which the IC50 was 452 nM in assay [1] (setting [3]) and 105 nM in assay [2].
Take `CC1(C#Cc2cnc3c(c2)[C@]2(COC(N)=N2)c2cc(-c4cncc(F)c4)c(F)cc2O3)COC1` [Example 623, (5S)-8-fluoro-7-(5-fluoro-3-pyridinyl)-3-((3-methyl-3-oxetanyl)ethynyl)spiro[chromeno[2,3-b]pyridine-5,4-[1,3]oxazol]-2′-amine]: the IC50 in assay [1] (setting [3]) was determined as 9 nM; in assay [2], 0.9 nM.
The corresponding values for `CC1(C#Cc2cnc3c(c2)[C@@]2(COC(N)=N2)c2cc(-c4cncc(F)c4)c(F)cc2O3)COC1` [Example 624, (5R)-8-fluoro-7-(5-fluoro-3-pyridinyl)-3-((3-methyl-3-oxetanyl)ethynyl)spiro[chromeno[2,3-b]pyridine-5,4′-[1,3]oxazol]-2′-amine] are 762 nM and 986 nM.
On the same counts, the results for `CC1(C#Cc2cnc3c(c2)[C@@]2(COC(N)=N2)c2cc(-c4cncc(Cl)c4)c(F)cc2O3)COC1` [Example 625, (5R)-7-(5-chloro-3-pyridinyl)-8-fluoro-3-((3-methyl-3-oxetanyl)ethynyl)spiro[chromeno[2,3-b]pyridine-5,4′-[1,3]oxazol]-2′-amine] are 2210 nM and 901 nM.
As to `CC1(C#Cc2cnc3c(c2)[C@]2(COC(N)=N2)c2cc(-c4cncc(Cl)c4)c(F)cc2O3)COC1` [Example 626, (5S)-7-(5-chloro-3-pyridinyl)-8-fluoro-3-((3-methyl-3-oxetanyl)ethynyl)spiro[chromeno[2,3-b]pyridine-5,4′-[1,3]oxazol]-2′-amine], the IC50 in assay [1] (setting [3]) was found to be 6 nM; in assay [2], 0.8 nM.
With `N#Cc1cnc2c(c1)C1(CSC(N)=N1)c1cc(-c3cccnc3F)ccc1O2` (stereo not shown) [Example 627, 2′-amino-7-(2-fluoro-3-pyridinyl)spiro[chromeno[2,3-b]pyridine-5,4′-[1,3]thiazole]-3-carbonitrile], the IC50 was determined as 1590 nM in assay [1] (setting [3]) and 626 nM in assay [2].
With `CC(C)(C)C#Cc1cnc2c(c1)[C@]1(CSC(N)=N1)c1cc(-c3cncnc3)ccc1O2` [Example 629, (5S)-3-(3,3-dimethyl-1-butyn-1-yl)-7-(5-pyrimidinyl)spiro[chromeno[2,3-b]pyridine-5,4′-[1,3]thiazol]-2′-amine], the values for the IC50 in assay [1] (setting [3]) and in assay [2] were 7 nM and 0.6 nM, respectively.
On to `NC1=N[C@@]2(CO1)c1cc(-c3cncc(F)c3)ccc1Oc1c2cc(-c2cccnc2)nc1F` [Example 630, (5S)-1-fluoro-7-(5-fluoro-3-pyridinyl)-3-(3-pyridinyl)spiro[chromeno[2,3-c]pyridine-5,4′-[1,3]oxazol]-2′-amine], for which the results for the IC50 in assay [1] (setting [3]) and in assay [2] were 11 nM and 0.3 nM, respectively.
